Assay results reported in patent US9428508B2, “2,4-diamino-6,7-dihydro-5H-pyrrolo[2,3]pyrimidine derivatives as FAK/Pyk2 inhibitors” (Centaurus BioPharma Co., Ltd., priority 2011, dated 2016).

What was measured:
FAK = FAK (Homo sapiens (Human), UniProt Q05397); experiment: Biochemical assay for FAK activity (LANCE TR-FRET, ULight-poly Glu,Ala,Tyr substrate); conditions: GST-tagged FAK, 120 min reaction
Summary of the method: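 GST-tagged FAK (2.5 nM working stock) with ULight-poly Glu,Ala,Tyr (666 nM stock) and ATP (33.3 μM stock) in Tris pH 7.5/MgCl2/DTT/CHAPS buffer with BSA, 120 min; EDTA-quenched. Phosphorylation read by TR-FRET with Eu-anti-phosphotyrosine (PY20) antibody after 60 min. Compounds tested as 12-point 3-fold dilutions.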

PYK2 = PYK2 (Homo sapiens (Human), UniProt Q14289); experiment: Biochemical assay for PYK2 activity (LANCE TR-FRET, ULight-poly Glu,Ala,Tyr substrate); conditions: GST-tagged PYK2, 40 min reaction
Summary of the method: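 GST-tagged human PYK2 (2 nM working stock) with ULight-poly Glu,Ala,Tyr (1:1:1) peptide (666 nM working stock) and ATP (46.6 μM working stock) in 40 mM Tris pH 7.5, MgCl2, 1 mM DTT, 1 mM CHAPS; 40 min reaction, EDTA quench. Phosphotyrosine read by LANCE Eu-anti-phosphotyrosine (PY20) TR-FRET after 60 min; 12-point 3-fold compound dilutions.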

Sequence of FAK (Q05397 whole entry): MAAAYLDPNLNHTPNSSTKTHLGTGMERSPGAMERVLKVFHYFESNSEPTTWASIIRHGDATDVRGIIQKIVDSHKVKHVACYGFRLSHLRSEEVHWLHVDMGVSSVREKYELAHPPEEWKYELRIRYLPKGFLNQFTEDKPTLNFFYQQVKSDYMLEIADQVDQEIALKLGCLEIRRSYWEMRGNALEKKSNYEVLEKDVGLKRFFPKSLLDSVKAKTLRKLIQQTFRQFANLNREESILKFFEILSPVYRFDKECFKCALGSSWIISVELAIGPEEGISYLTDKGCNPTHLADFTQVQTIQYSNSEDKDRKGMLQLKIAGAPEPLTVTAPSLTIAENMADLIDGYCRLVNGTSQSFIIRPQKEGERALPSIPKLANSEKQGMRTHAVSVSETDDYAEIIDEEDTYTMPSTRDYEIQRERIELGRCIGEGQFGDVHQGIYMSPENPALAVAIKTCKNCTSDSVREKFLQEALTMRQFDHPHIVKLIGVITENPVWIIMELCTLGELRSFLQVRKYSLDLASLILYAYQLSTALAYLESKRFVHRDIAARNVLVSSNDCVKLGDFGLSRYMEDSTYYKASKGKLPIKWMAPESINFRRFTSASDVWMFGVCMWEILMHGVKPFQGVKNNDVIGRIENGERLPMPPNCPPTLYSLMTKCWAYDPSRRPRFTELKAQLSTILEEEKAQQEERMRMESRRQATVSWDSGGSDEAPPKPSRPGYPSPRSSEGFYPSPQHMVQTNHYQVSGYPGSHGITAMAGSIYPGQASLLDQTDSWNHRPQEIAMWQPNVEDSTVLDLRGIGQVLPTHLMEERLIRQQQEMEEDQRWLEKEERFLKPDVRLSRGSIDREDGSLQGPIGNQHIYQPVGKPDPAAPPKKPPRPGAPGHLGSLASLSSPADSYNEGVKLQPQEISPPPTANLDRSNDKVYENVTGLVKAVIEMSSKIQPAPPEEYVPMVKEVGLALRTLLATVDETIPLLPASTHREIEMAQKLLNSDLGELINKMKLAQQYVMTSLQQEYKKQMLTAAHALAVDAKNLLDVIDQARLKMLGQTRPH
Sequence of PYK2 (Q14289 whole entry): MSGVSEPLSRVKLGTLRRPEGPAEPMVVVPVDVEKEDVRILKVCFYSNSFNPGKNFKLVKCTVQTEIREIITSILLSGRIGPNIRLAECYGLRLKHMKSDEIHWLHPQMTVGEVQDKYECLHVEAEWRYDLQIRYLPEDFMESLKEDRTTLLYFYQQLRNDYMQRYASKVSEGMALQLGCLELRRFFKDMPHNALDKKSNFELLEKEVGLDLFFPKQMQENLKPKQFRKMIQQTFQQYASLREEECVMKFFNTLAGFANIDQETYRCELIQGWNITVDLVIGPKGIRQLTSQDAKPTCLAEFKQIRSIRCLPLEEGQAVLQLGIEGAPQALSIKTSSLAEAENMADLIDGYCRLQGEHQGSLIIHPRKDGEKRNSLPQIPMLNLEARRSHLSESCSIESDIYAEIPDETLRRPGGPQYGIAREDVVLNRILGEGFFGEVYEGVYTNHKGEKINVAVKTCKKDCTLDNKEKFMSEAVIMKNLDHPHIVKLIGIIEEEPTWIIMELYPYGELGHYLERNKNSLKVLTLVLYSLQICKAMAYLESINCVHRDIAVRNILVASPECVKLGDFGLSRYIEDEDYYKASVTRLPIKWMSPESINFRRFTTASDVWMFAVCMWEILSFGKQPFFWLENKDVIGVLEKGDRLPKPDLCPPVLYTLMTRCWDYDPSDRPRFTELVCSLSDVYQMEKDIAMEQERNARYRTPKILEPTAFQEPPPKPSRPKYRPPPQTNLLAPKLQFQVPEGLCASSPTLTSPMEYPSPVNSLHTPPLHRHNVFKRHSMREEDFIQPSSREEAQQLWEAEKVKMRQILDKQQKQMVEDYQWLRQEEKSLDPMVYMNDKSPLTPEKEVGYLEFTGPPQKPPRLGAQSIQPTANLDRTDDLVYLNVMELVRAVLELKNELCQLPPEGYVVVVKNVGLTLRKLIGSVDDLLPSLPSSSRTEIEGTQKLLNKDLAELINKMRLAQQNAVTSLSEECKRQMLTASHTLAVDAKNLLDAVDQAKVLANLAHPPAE

| SMILES | IC50 (FAK) [nM] | IC50 (PYK2) [nM] |
| --- | --- | --- |
| COc1cc(N2CCC(N(C)C)C2)ccc1Nc1nc2c(c(Nc3ccccc3S(=O)(=O)NC(C)C)n1)CCN2 (stereo not shown) [Example 89, 2-(2-(4-(3-(dimethylamino)pyrrolidin-1-yl)-2-methoxyphenylamino)-6,7-dihydro-5H-pyrrolo[2,3-d]pyrimidin-4-ylamino)-N-isopropylbenzenesulfonamide] | < 20 | < 20 |
| COc1cc(N2CCOCC2)ccc1Nc1nc2c(c(Nc3ccccc3S(=O)(=O)NC3CCC3)n1)C(C)(C)CN2 [Example 104, N-cyclobutyl-2-(2-(2-methoxy-4-morpholinophenylamino)-5,5-dimethyl-6,7-dihydro-5H-pyrrolo[2,3-d]pyrimidin-4-ylamino)benzenesulfonamide] | < 20 | < 20 |
| COc1cc(N2CCC(CO)CC2)ccc1Nc1nc2c(c(Nc3ccccc3S(=O)(=O)NC(C)C)n1)CCN2 [Example 79, 2-(2-(4-(4-(hydroxymethyl)piperidin-1-yl)-2-methoxyphenylamino)-6,7-dihydro-5H-pyrrolo[2,3-d]pyrimidin-4-ylamino)-N-isopropylbenzenesulfonamide] | < 20 | < 20 |
| COc1cc(N2CCC(N3CCNCC3)CC2)ccc1Nc1nc2c(c(Nc3ccccc3S(=O)(=O)NC(C)C)n1)CCN2 [Example 97, N-isopropyl-2-(2-(2-methoxy-4-(4-(piperazin-1-yl)piperidin-1-yl)phenylamino)-6,7-dihydro-5H-pyrrolo[2,3-d]pyrimidin-4-ylamino)benzenesulfonamide] | < 100 | < 500 |
| CNS(=O)(=O)c1ccccc1Nc1nc(Nc2ccc(N3CCOCC3)cc2OC)nc2c1C(C)CN2 (racemic) [Example 25, (±)-2-(2-(2-methoxy-4-morpholinophenylamino)-5-methyl-6,7-dihydro-5H-pyrrolo[2,3-d]pyrimidin-4-ylamino)-N-methylbenzenesulfonamide] | < 50 | < 20 |
| COc1nc(N2CCOCC2)ccc1Nc1nc2c(c(Nc3ccccc3S(=O)(=O)NC(C)C)n1)CCN2 [Example 56, N-isopropyl-2-(2-(2-methoxy-6-morpholino-3-ylamino)-6,7-dihydro-5H-pyrrolo[2,3-d]pyrimidin-4-ylamino)benzenesulfonamide] | < 20 | < 50 |
| COc1cc(N2CCOCC2)ccc1Nc1nc2c(c(Nc3ccccc3S(=O)(=O)N(C)C)n1)C(C)(C)CN2 [Example 111, 2-(2-(2-methoxy-4-morpholinophenylamino)-5,5-dimethyl-6,7-dihydro-5H-pyrrolo[2,3-d]pyrimidin-4-ylamino)-N,N-dimethylbenzenesulfonamide] | < 20 | < 20 |
| COc1cc(N2CCOCC2)ccc1Nc1nc2c(c(Nc3ccccc3S(=O)(=O)NC3CC3)n1)CCN2 [Example 42, N-cyclopropyl-2-(2-(2-methoxy-4-morpholinophenylamino)-6,7-dihydro-5H-pyrrolo[2,3-d]pyrimidin-4-ylamino)benzenesulfonamide] | < 20 | < 50 |
| CC(C)NC(C)c1ccc(Nc2nc3c(c(Nc4ccccc4S(=O)(=O)NC(C)C)n2)CCN3)cc1 (stereo not shown) [Example 72, N-isopropyl-2-(2-(4-(1-(isopropylamino)ethyl)phenylamino)-6,7-dihydro-5H-pyrrolo[2,3-d]pyrimidin-4-ylamino)benzenesulfonamide] | < 20 | < 20 |
| CNC(=O)c1ccccc1Nc1nc(Nc2ccc(N3CCOCC3)c3c2OCCO3)nc2c1C(C)(C)CN2 [Example 129, 2-(5,5-dimethyl-2-(8-morpholino-2,3-dihydrobenzo[b][1,4]dioxin-5-ylamino)-6,7-dihydro-5H-pyrrolo[2,3-d]pyrimidin-4-ylamino)-N-methylbenzamide] | < 50 | < 100 |

Other lines, results leading:

| IC50 (FAK) [nM] | IC50 (PYK2) [nM] | SMILES |
| --- | --- | --- |
| < 20 | < 100 | COc1cc(N2CCC(O)C2)ccc1Nc1nc2c(c(Nc3ccccc3S(=O)(=O)NC(C)C)n1)CCN2 (stereo not shown) [Example 80, 2-(2-(4-(3-hydroxypyrrolidin-1-yl)-2-methoxyphenylamino)-6,7-dihydro-5H-pyrrolo[2,3-d]pyrimidin-4-ylamino)-N-isopropylbenzenesulfonamide] |
| < 100 | < 200 | CNC(=O)c1ccccc1Nc1nc(Nc2cccc3c2ccn3CCCN2CCOCC2)nc2c1CCN2 [Example 22, N-methyl-2-(2-(1-(3-morpholinopropyl)-1H-indol-4-ylamino)-6,7-dihydro-5H-pyrrolo[2,3-d]pyrimidin-4-ylamino)benzamide] |
| < 100 | < 20 | CCNS(=O)(=O)c1ccccc1Nc1nc(Nc2ccc(N3CCOCC3)cc2OC)nc2c1CCN2 [Example 43, N-ethyl-2-(2-(2-methoxy-4-morpholinophenylamino)-6,7-dihydro-5H-pyrrolo[2,3-d]pyrimidin-4-ylamino)benzenesulfonamide] |
| < 20 | < 20 | COc1cc(N2CCOCC2)ccc1Nc1nc2c(c(Nc3ccccc3S(=O)(=O)NCC(C)C)n1)C1(CC1)CN2 [Example 137, N-isobutyl-2-(2′-(2-methoxy-4-morpholinophenylamino)-6′,7′-dihydrospiro[cyclopropane-1,5′-pyrrolo[2,3-d]pyrimidine]-4′-ylamino)benzenesulfonamide] |
| < 200 | < 500 | COc1cc(N2CCOCC2)ccc1Nc1nc2c(c(Nc3ccccc3S(=O)(=O)Nc3ccccc3)n1)C(C)(C)CN2 [Example 116, 2-(2-(2-methoxy-4-morpholinophenylamino)-5,5-dimethyl-6,7-dihydro-5H-pyrrolo[2,3-d]pyrimidin-4-ylamino)-N-phenylbenzenesulfonamide] |
| < 50 | < 200 | COc1cc(N2CCCCC2)ccc1Nc1nc2c(c(Nc3ccccc3S(=O)(=O)NC(C)C)n1)CCN2 [Example 68, N-isopropyl-2-(2-(2-methoxy-4-(piperidin-1-yl)phenylamino)-6,7-dihydro-5H-pyrrolo[2,3-d]pyrimidin-4-ylamino)benzenesulfonamide] |
| < 20 | < 20 | CC(C)NS(=O)(=O)c1ccccc1Nc1nc(Nc2ccc(C(=O)N3CCOCC3)cc2)nc2c1CCN2 [Example 65, N-isopropyl-2-(2-(4-(morpholine-4-carbonyl)phenylamino)-6,7-dihydro-5H-pyrrolo[2,3-d]pyrimidin-4-ylamino)benzenesulfonamide] |
| < 20 | < 20 | CCCNS(=O)(=O)c1ccccc1Nc1nc(Nc2ccc(N3CCOCC3)cc2OC)nc2c1C(C)CN2 (racemic) [Example 26, (±)-2-(2-(2-methoxy-4-morpholinophenylamino)-5-methyl-6,7-dihydro-5H-pyrrolo[2,3-d]pyrimidin-4-ylamino)-N-propylbenzenesulfonamide] |
| > 1000 | < 1000 | COc1cc(N2CCOCC2)ccc1Nc1nc2c(c(Nc3ccc(F)c(F)c3)n1)C(C)CN2 (racemic) [Example 34, (±)-N^4-(3,4-difluorophenyl)-N^2-(2-methoxy-4-morpholinophenyl)-5-methyl-6,7-dihydro-5H-pyrrolo[2,3-d]pyrimidine-2,4-diamine] |
| < 20 | < 50 | COc1cc(N2CCOCC2)ccc1Nc1nc2c(c(Nc3ccccc3S(=O)(=O)NCCN(C)C)n1)C(C)(C)CN2 [Example 120, N-(2-(dimethylamino)ethyl)-2-(2-(2-methoxy-4-morpholinophenylamino)-5,5-dimethyl-6,7-dihydro-5H-pyrrolo[2,3-d]pyrimidin-4-ylamino)benzenesulfonamide] |
